Results: PubChem BioAssay (NCI)
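Briefly, cells in 96-well plates were exposed to five compound concentrations for 48 h, and endpoints were estimated by linear interpolation. At the TGI there is no net growth.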

Key:
Assay in all cases: DTP human tumour cell line panel, 48 h
ACHN renal = test system: ACHN renal
SF-268 CNS = test system: SF-268 CNS
SN12C renal = test system: SN12C renal
MDA-MB-231 breast = test system: MDA-MB-231 breast
PC-3 prostate = test system: PC-3 prostate
SK-OV-3 ovarian = test system: SK-OV-3 ovarian
SK-MEL-5 melanoma = test system: SK-MEL-5 melanoma
NCI/ADR-RES ovarian = test system: NCI/ADR-RES ovarian
NCI-H460 lung = test system: NCI-H460 lung
SW-620 colon = test system: SW-620 colon
T-47D breast = test system: T-47D breast
MDA-N = test system: MDA-N
NCI-H226 lung = test system: NCI-H226 lung
BT-549 breast = test system: BT-549 breast
HCT-116 colon = test system: HCT-116 colon
HT29 colon = test system: HT29 colon
UACC-257 melanoma = test system: UACC-257 melanoma
RPMI-8226 leukemia = test system: RPMI-8226 leukemia
OVCAR-4 ovarian = test system: OVCAR-4 ovarian
IGROV1 ovarian = test system: IGROV1 ovarian
UACC-62 melanoma = test system: UACC-62 melanoma
786-0 renal = test system: 786-0 renal
MALME-3M melanoma = test system: MALME-3M melanoma
HCC-2998 colon = test system: HCC-2998 colon
U251 CNS = test system: U251 CNS
MCF7 breast = test system: MCF7 breast
OVCAR-8 ovarian = test system: OVCAR-8 ovarian
CAKI-1 renal = test system: CAKI-1 renal
HS 578T breast = test system: HS 578T breast
MOLT-4 leukemia = test system: MOLT-4 leukemia
COLO 205 colon = test system: COLO 205 colon
NCI-H23 lung = test system: NCI-H23 lung
SR leukemia = test system: SR leukemia
SF-539 CNS = test system: SF-539 CNS
SK-MEL-2 melanoma = test system: SK-MEL-2 melanoma
MDA-MB-435 = test system: MDA-MB-435
HCT-15 colon = test system: HCT-15 colon
HOP-62 NSCLC = test system: HOP-62 NSCLC
TK-10 renal = test system: TK-10 renal
M14 melanoma = test system: M14 melanoma
SK-MEL-28 melanoma = test system: SK-MEL-28 melanoma
KM12 colon = test system: KM12 colon
OVCAR-5 ovarian = test system: OVCAR-5 ovarian
RXF 393 renal = test system: RXF 393 renal
SNB-19 CNS = test system: SNB-19 CNS
UO-31 renal = test system: UO-31 renal
LOX IMVI melanoma = test system: LOX IMVI melanoma
EKVX NSCLC = test system: EKVX NSCLC
HOP-92 NSCLC = test system: HOP-92 NSCLC
A498 renal = test system: A498 renal
SF-295 CNS = test system: SF-295 CNS
K-562 leukemia = test system: K-562 leukemia
A549 NSCLC = test system: A549 NSCLC
CCRF-CEM leukemia = test system: CCRF-CEM leukemia
OVCAR-3 ovarian = test system: OVCAR-3 ovarian
HL-60(TB) leukemia = test system: HL-60(TB) leukemia
NCI-H522 lung = test system: NCI-H522 lung
DU-145 prostate = test system: DU-145 prostate
SNB-75 CNS = test system: SNB-75 CNS
DMS 114 small cell lung = test system: DMS 114 small cell lung
KM20L2 colon = test system: KM20L2 colon
LXFL 529 NSCLC = test system: LXFL 529 NSCLC
HOP-18 NSCLC = test system: HOP-18 NSCLC
DLD-1 colon = test system: DLD-1 colon
SNB-78 CNS = test system: SNB-78 CNS

Measured: TGI

CCOC(=O)c1nc2cc(Cl)ccc2[nH]c1=O
not listed: SNB-75 CNS | DMS 114 small cell lung | KM20L2 colon | LXFL 529 NSCLC | HOP-18 NSCLC | DLD-1 colon | SNB-78 CNS
> 100 µM: all other assays above

CCOC(=O)c1cc(C)nc2c1c(=O)n(-c1ccccc1)c(=O)n2CCCCN1CCN(c2ncccn2)CC1
83.8 µM: CAKI-1 renal
97.7 µM: CCRF-CEM leukemia
57.1 µM: HL-60(TB) leukemia
not listed: NCI-H460 lung | OVCAR-4 ovarian | SF-539 CNS | HCT-15 colon | SNB-19 CNS | DMS 114 small cell lung | KM20L2 colon | LXFL 529 NSCLC | HOP-18 NSCLC | DLD-1 colon | SNB-78 CNS
> 100 µM: all other assays above

O=C1[C@@H]2C(c3ccccc3[N+](=O)[O-])=NO[C@@H]2C(=O)N1c1ccc(Cc2ccc(N3C(=O)[C@H]4C(c5ccccc5[N+](=O)[O-])=NO[C@H]4C3=O)cc2)cc1
not listed: MDA-MB-231 breast | PC-3 prostate | SK-OV-3 ovarian | NCI/ADR-RES ovarian | T-47D breast | MDA-N | NCI-H226 lung | BT-549 breast | MCF7 breast | HS 578T breast | SK-MEL-2 melanoma | MDA-MB-435 | A549 NSCLC | HL-60(TB) leukemia | DU-145 prostate
> 100 µM: all other assays above
